In the supplement of paper PMC10307832:

Legend:
Assay in all cases: relative viability (nuclei count vs DMSO), 5 days (fraction); higher = more cells survive
ChaGo-K-1 = tested on: ChaGo-K-1
Summary of the method: (§1)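 Lung cancer cell lines in 1536-well plates were dosed by pin tool the day after seeding, either with one drug alone or with a fixed anchor-drug dose plus five library-drug doses (not always all listed) in √10 steps. After 5 days, cells were fixed and their nuclei stained in one step (final 0.05% Triton X-100, 1% formaldehyde, 1 ug/ml Hoechst), then counted on 4× images. Relative viability is the nuclei count in treated wells divided by that in vehicle wells. Values are medians of duplicate plates.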

EKVX = tested on: EKVX
Summary of the method: as §1

EMC-BAC-2 = tested on: EMC-BAC-2
Summary of the method: as §1

EPLC-272H = tested on: EPLC-272H
Summary of the method: as §1

HCC-78 = tested on: HCC-78
Summary of the method: as §1

HCC-827 = tested on: HCC-827
Summary of the method: as §1

LCLC-103H = tested on: LCLC-103H
Summary of the method: as §1

LK-2 = tested on: LK-2
Summary of the method: as §1

LU99A = tested on: LU99A
Summary of the method: as §1

LXF-289 = tested on: LXF-289
Summary of the method: as §1

NCI-H1666 = tested on: NCI-H1666
Summary of the method: as §1

NCI-H1975 = tested on: NCI-H1975
Summary of the method: as §1

NCI-H2126 = tested on: NCI-H2126
Summary of the method: as §1

NCI-H2342 = tested on: NCI-H2342
Summary of the method: as §1

NCI-H23 = tested on: NCI-H23
Summary of the method: as §1

NCI-H2405 = tested on: NCI-H2405
Summary of the method: as §1

NCI-H322M = tested on: NCI-H322M
Summary of the method: as §1

PC-14 = tested on: PC-14
Summary of the method: as §1

RERF-LC-KJ = tested on: RERF-LC-KJ
Summary of the method: as §1

SK-LU-1 = tested on: SK-LU-1
Summary of the method: as §1

SW 1573 = tested on: SW 1573
Summary of the method: as §1

SW 900 = tested on: SW 900
Summary of the method: as §1

With `COc1nc(C)cnc1NS(=O)(=O)c1cccnc1-c1ccc(-c2nnco2)cc1` [Zibotentan] + O=C(CCCCCCC(=O)Nc1ccccc1)NO [Vorinostat] (partner 1 µM) the relative viability (ChaGo-K-1; first compound 0.08 µM) was 0.802, the relative viability (ChaGo-K-1; first compound 0.253 µM) was 0.764 and the relative viability (ChaGo-K-1; first compound 0.8 µM) was 0.713. For the same compound, the relative viability (ChaGo-K-1; first compound 2.53 µM) was 0.815, the relative viability (EKVX; first compound 0.08 µM) was 0.675 and the relative viability (EKVX; first compound 0.253 µM) was 0.818. It also gave a relative viability (EKVX; first compound 0.8 µM) of 0.727, a relative viability (EKVX; first compound 2.53 µM) of 0.777 and a relative viability (EMC-BAC-2; first compound 0.08 µM) of 0.907. The relative viability (EMC-BAC-2; first compound 0.8 µM) was 0.546, the relative viability (EMC-BAC-2; first compound 2.53 µM) was 0.514 and the relative viability (EPLC-272H; first compound 0.253 µM) was 0.506. For the same compound, the relative viability (EPLC-272H; first compound 0.8 µM) was 0.667, the relative viability (EPLC-272H; first compound 2.53 µM) was 0.501 and the relative viability (HCC-78; first compound 0.08 µM) was 0.482. For the same compound, the relative viability (HCC-78; first compound 0.253 µM) was 0.347, the relative viability (HCC-78; first compound 0.8 µM) was 0.382 and the relative viability (HCC-78; first compound 2.53 µM) was 0.48. For the same compound, the relative viability (HCC-827; first compound 0.08 µM) was 0.958, the relative viability (HCC-827; first compound 0.253 µM) was 0.771 and the relative viability (HCC-827; first compound 0.8 µM) was 0.811. It also gave a relative viability (HCC-827; first compound 2.53 µM) of 0.785, a relative viability (LCLC-103H; first compound 0.08 µM) of 0.801 and a relative viability (LCLC-103H; first compound 0.253 µM) of 0.842. The relative viability (LCLC-103H; first compound 0.8 µM) was 0.722, the relative viability (LCLC-103H; first compound 2.53 µM) was 0.839 and the relative viability (LK-2; first compound 0.08 µM) was 0.304. It also gave a relative viability (LK-2; first compound 0.253 µM) of 0.305, a relative viability (LK-2; first compound 0.8 µM) of 0.338 and a relative viability (LK-2; first compound 2.53 µM) of 0.209. The relative viability (LU99A; first compound 0.08 µM) was 0.514, the relative viability (LU99A; first compound 0.253 µM) was 0.537 and the relative viability (LU99A; first compound 0.8 µM) was 0.463. The relative viability (LU99A; first compound 2.53 µM) was 0.477, the relative viability (LXF-289; first compound 0.08 µM) was 0.769 and the relative viability (LXF-289; first compound 0.253 µM) was 0.713. For the same compound, the relative viability (LXF-289; first compound 0.8 µM) was 0.766, the relative viability (LXF-289; first compound 2.53 µM) was 0.746 and the relative viability (NCI-H1666; first compound 0.08 µM) was 1.17. The relative viability (NCI-H1666; first compound 0.253 µM) was 0.95, the relative viability (NCI-H1666; first compound 0.8 µM) was 1.04 and the relative viability (NCI-H1666; first compound 2.53 µM) was 1.1. It also gave a relative viability (NCI-H1975; first compound 0.08 µM) of 0.758, a relative viability (NCI-H1975; first compound 0.253 µM) of 0.646 and a relative viability (NCI-H1975; first compound 0.8 µM) of 0.632. It also gave a relative viability (NCI-H1975; first compound 2.53 µM) of 0.7, a relative viability (NCI-H2126; first compound 0.08 µM) of 0.844 and a relative viability (NCI-H2126; first compound 0.253 µM) of 0.765. For the same compound, the relative viability (NCI-H2126; first compound 0.8 µM) was 0.651, the relative viability (NCI-H2126; first compound 2.53 µM) was 0.831 and the relative viability (NCI-H2342; first compound 0.08 µM) was 0.832. It also gave a relative viability (NCI-H2342; first compound 0.253 µM) of 0.778, a relative viability (NCI-H2342; first compound 0.8 µM) of 0.778 and a relative viability (NCI-H2342; first compound 2.53 µM) of 0.678. It also gave a relative viability (NCI-H23; first compound 0.08 µM) of 0.642, a relative viability (NCI-H23; first compound 0.253 µM) of 0.497 and a relative viability (NCI-H23; first compound 0.8 µM) of 0.452. The relative viability (NCI-H23; first compound 2.53 µM) was 0.707, the relative viability (NCI-H2405; first compound 0.08 µM) was 1.25 and the relative viability (NCI-H2405; first compound 0.253 µM) was 0.829. It also gave a relative viability (NCI-H2405; first compound 0.8 µM) of 0.957, a relative viability (NCI-H2405; first compound 2.53 µM) of 1.12 and a relative viability (NCI-H322M; first compound 0.08 µM) of 1.03. For the same compound, the relative viability (NCI-H322M; first compound 0.253 µM) was 0.748, the relative viability (NCI-H322M; first compound 0.8 µM) was 0.895 and the relative viability (NCI-H322M; first compound 2.53 µM) was 0.93. It also gave a relative viability (PC-14; first compound 0.08 µM) of 0.937, a relative viability (PC-14; first compound 0.253 µM) of 0.421 and a relative viability (PC-14; first compound 0.8 µM) of 0.81. It also gave a relative viability (PC-14; first compound 2.53 µM) of 0.77, a relative viability (RERF-LC-KJ; first compound 0.08 µM) of 0.847 and a relative viability (RERF-LC-KJ; first compound 0.253 µM) of 0.541. It also gave a relative viability (RERF-LC-KJ; first compound 0.8 µM) of 0.74, a relative viability (RERF-LC-KJ; first compound 2.53 µM) of 0.679 and a relative viability (SK-LU-1; first compound 0.08 µM) of 0.697. It also gave a relative viability (SK-LU-1; first compound 0.253 µM) of 0.726, a relative viability (SK-LU-1; first compound 0.8 µM) of 0.819 and a relative viability (SK-LU-1; first compound 2.53 µM) of 0.83. For the same compound, the relative viability (SW 1573; first compound 0.08 µM) was 0.76, the relative viability (SW 1573; first compound 0.8 µM) was 0.957 and the relative viability (SW 1573; first compound 2.53 µM) was 0.885. For the same compound, the relative viability (SW 900; first compound 0.08 µM) was 0.559, the relative viability (SW 900; first compound 0.253 µM) was 0.404 and the relative viability (SW 900; first compound 0.8 µM) was 0.552. For the same compound, the relative viability (SW 900; first compound 2.53 µM) was 0.588.
